US20110182982A1, “LIPOSOME TREATMENT OF VIRAL INFECTIONS” (University of Oxford, priority 2006, published 2011)
pIC50: −log10 of the molar value.

Tests used:
Assay in all cases: p24 secretion of HIV-1-infected PBMCs
Type in all cases: cell-based
Conditions in all cases: for % p24 secretion Week 1-rb / % p24 secretion Week 2-rb / % p24 secretion Week 3-rb / % p24 secretion Week 4-rb: treatment removed 2 weeks
HIV-1 isolate: 89.6 = system: HIV-1 isolate: 89.6
Method: (§1) Clearance of HIV-1 primary isolates from infected human cells by NB-DNJ was assessed using phytohemagglutinin (PHA)-activated peripheral blood mononuclear cells (PBMCs) as indicator cells and the determination of p24 antigen production as the end point.
(§2) PBMCs from four normal (uninfected) donors were isolated, pooled, and stimulated with PHA (5 μg/ml) for 48 h followed by PHA plus interleukin-2 (40 U/ml) for 72 h in RPMI 1640 medium containing 10% heat-inactivated fetal bovine serum (FBS), 100 U of penicillin per ml, 100 μg of streptomycin per ml, and 2 mM L-glutamine. All experiments were performed in 96-well microtiter plates. To infect cells, 100 μl of PHA-activated PBMCs (5×10^5/ml) was added to each well, after which an equal volume containing 100 50% tissue culture infective doses (TCID50) of primary isolate stock was added. After an overnight incubation, the cells were washed three times with tissue culture medium, and finally re-suspended in medium containing the appropriate liposome treatment or free NB-DNJ. On day 7, approximately 10-30% of the culture volume containing secreted HIV-1 virions was used to infect naïve PBMCs for a second round of infection and treatment (volume transferred was calculated to be the volume necessary for the untreated control of that isolate to infect naïve cells at a TCID50=100). Rounds of treatment and infection of naïve cells were continued over four weeks, and at every time point cellular supernatant containing secreted virions was isolated and used in capture ELISAs to determine p24 concentration (measure of secretion). Additionally, supernatant isolated at each time point throughout treatment was used to infect naïve PBMCs (TCID50=100) for two weeks with no further treatment, which allowed for the observation of a rebound in viral activity.
(§3) PBMCs infected with 8 primary isolates (listed in Table 3) were incubated in the presence of free NB-DNJ (concentrations ranging 0-1 mM) or liposome-encapsulated NB-DNJ (0-3.75 μM, final lipid concentration of 50 μM).

HIV-1 isolate: BR93020 = system: HIV-1 isolate: BR93020
Method: as §1, §2, §3

HIV-1 isolate: UG92046 = system: HIV-1 isolate: UG92046
Method: as §1, §2, §3

HIV-1 isolate: 93IN101 = system: HIV-1 isolate: 93IN101
Method: as §1, §2, §3

[1] = 1 mM free in medium, first week
[2] = Human immunodeficiency virus 1, PBMC, free, three rounds of treatment

Compound: CCCCN1C[C@H](O)[C@@H](O)[C@H](O)[C@H]1CO [NB-DNJ, N-butyl-1,5-dideoxy-1,5-imino-D-glucitol]
- reduction in viral secretion (HIV-1 isolate: 89.6; [1]): 75%
- pIC50 (HIV-1 isolate: 89.6; [2]): 3.60
- IC90 (HIV-1 isolate: 89.6; [2]): 375 µM
- % p24 secretion Week 1 (HIV-1 isolate: 89.6; NB-DNJ 250 uM): 98%
- % p24 secretion Week 2 (HIV-1 isolate: 89.6; NB-DNJ 250 uM): 79%
- % p24 secretion Week 3 (HIV-1 isolate: 89.6; NB-DNJ 250 uM): 54%
- % p24 secretion Week 4 (HIV-1 isolate: 89.6; NB-DNJ 250 uM): 59%
- % p24 secretion Week 1-rb (HIV-1 isolate: 89.6; NB-DNJ 250 uM): 81%
- % p24 secretion Week 2-rb (HIV-1 isolate: 89.6; NB-DNJ 250 uM): 70%
- % p24 secretion Week 3-rb (HIV-1 isolate: 89.6; NB-DNJ 250 uM): 73%
- % p24 secretion Week 4-rb (HIV-1 isolate: 89.6; NB-DNJ 250 uM): 66%
- % p24 secretion Week 1 (HIV-1 isolate: 89.6; NB-DNJ 500 uM): 36%
- % p24 secretion Week 2 (HIV-1 isolate: 89.6; NB-DNJ 500 uM): 16%
- % p24 secretion Week 3 (HIV-1 isolate: 89.6; NB-DNJ 500 uM): 2%
- % p24 secretion Week 4 (HIV-1 isolate: 89.6; NB-DNJ 500 uM): 0%
- % p24 secretion Week 1-rb (HIV-1 isolate: 89.6; NB-DNJ 500 uM): 35%
- % p24 secretion Week 2-rb (HIV-1 isolate: 89.6; NB-DNJ 500 uM): 8%
- % p24 secretion Week 3-rb (HIV-1 isolate: 89.6; NB-DNJ 500 uM): 0%
- % p24 secretion Week 4-rb (HIV-1 isolate: 89.6; NB-DNJ 500 uM): 0%
- % p24 secretion Week 1 (HIV-1 isolate: 89.6; NB-DNJ 1000 uM): 25%
- % p24 secretion Week 2 (HIV-1 isolate: 89.6; NB-DNJ 1000 uM): 1%
- % p24 secretion Week 3 (HIV-1 isolate: 89.6; NB-DNJ 1000 uM): 1%
- % p24 secretion Week 4 (HIV-1 isolate: 89.6; NB-DNJ 1000 uM): 0%
- % p24 secretion Week 1-rb (HIV-1 isolate: 89.6; NB-DNJ 1000 uM): 21%
- % p24 secretion Week 2-rb (HIV-1 isolate: 89.6; NB-DNJ 1000 uM): 0%
- % p24 secretion Week 3-rb (HIV-1 isolate: 89.6; NB-DNJ 1000 uM): 0%
- % p24 secretion Week 4-rb (HIV-1 isolate: 89.6; NB-DNJ 1000 uM): 0%
- pIC50 (HIV-1 isolate: BR93020; [2]): 3.60
- IC90 (HIV-1 isolate: BR93020; [2]): 375 µM
- % p24 secretion Week 1 (HIV-1 isolate: BR93020; NB-DNJ 250 uM): 89%
- % p24 secretion Week 2 (HIV-1 isolate: BR93020; NB-DNJ 250 uM): 74%
- % p24 secretion Week 3 (HIV-1 isolate: BR93020; NB-DNJ 250 uM): 53%
- % p24 secretion Week 4 (HIV-1 isolate: BR93020; NB-DNJ 250 uM): 55%
- % p24 secretion Week 1-rb (HIV-1 isolate: BR93020; NB-DNJ 250 uM): 97%
- % p24 secretion Week 2-rb (HIV-1 isolate: BR93020; NB-DNJ 250 uM): 77%
- % p24 secretion Week 3-rb (HIV-1 isolate: BR93020; NB-DNJ 250 uM): 71%
- % p24 secretion Week 4-rb (HIV-1 isolate: BR93020; NB-DNJ 250 uM): 59%
- % p24 secretion Week 1 (HIV-1 isolate: BR93020; NB-DNJ 500 uM): 60%
- % p24 secretion Week 2 (HIV-1 isolate: BR93020; NB-DNJ 500 uM): 19%
- % p24 secretion Week 3 (HIV-1 isolate: BR93020; NB-DNJ 500 uM): 1%
- % p24 secretion Week 4 (HIV-1 isolate: BR93020; NB-DNJ 500 uM): 1%
- % p24 secretion Week 1-rb (HIV-1 isolate: BR93020; NB-DNJ 500 uM): 68%
- % p24 secretion Week 2-rb (HIV-1 isolate: BR93020; NB-DNJ 500 uM): 3%
- % p24 secretion Week 3-rb (HIV-1 isolate: BR93020; NB-DNJ 500 uM): 0%
- % p24 secretion Week 4-rb (HIV-1 isolate: BR93020; NB-DNJ 500 uM): 1%
- % p24 secretion Week 1 (HIV-1 isolate: BR93020; NB-DNJ 1000 uM): 58%
- % p24 secretion Week 2 (HIV-1 isolate: BR93020; NB-DNJ 1000 uM): 2%
- % p24 secretion Week 3 (HIV-1 isolate: BR93020; NB-DNJ 1000 uM): 0%
- % p24 secretion Week 4 (HIV-1 isolate: BR93020; NB-DNJ 1000 uM): 0%
- % p24 secretion Week 1-rb (HIV-1 isolate: BR93020; NB-DNJ 1000 uM): 44%
- % p24 secretion Week 2-rb (HIV-1 isolate: BR93020; NB-DNJ 1000 uM): 0%
- % p24 secretion Week 3-rb (HIV-1 isolate: BR93020; NB-DNJ 1000 uM): 0%
- % p24 secretion Week 4-rb (HIV-1 isolate: BR93020; NB-DNJ 1000 uM): 0%
- % p24 secretion Week 1 (HIV-1 isolate: UG92046; NB-DNJ 250 uM): 91%
- % p24 secretion Week 2 (HIV-1 isolate: UG92046; NB-DNJ 250 uM): 115%
- % p24 secretion Week 3 (HIV-1 isolate: UG92046; NB-DNJ 250 uM): 91%
- % p24 secretion Week 4 (HIV-1 isolate: UG92046; NB-DNJ 250 uM): 79%
- % p24 secretion Week 1-rb (HIV-1 isolate: UG92046; NB-DNJ 250 uM): 99%
- % p24 secretion Week 2-rb (HIV-1 isolate: UG92046; NB-DNJ 250 uM): 92%
- % p24 secretion Week 3-rb (HIV-1 isolate: UG92046; NB-DNJ 250 uM): 94%
- % p24 secretion Week 4-rb (HIV-1 isolate: UG92046; NB-DNJ 250 uM): 89%
- % p24 secretion Week 1 (HIV-1 isolate: UG92046; NB-DNJ 500 uM): 79%
- % p24 secretion Week 2 (HIV-1 isolate: UG92046; NB-DNJ 500 uM): 39%
- % p24 secretion Week 3 (HIV-1 isolate: UG92046; NB-DNJ 500 uM): 10%
- % p24 secretion Week 4 (HIV-1 isolate: UG92046; NB-DNJ 500 uM): 0%
- % p24 secretion Week 1-rb (HIV-1 isolate: UG92046; NB-DNJ 500 uM): 75%
- % p24 secretion Week 2-rb (HIV-1 isolate: UG92046; NB-DNJ 500 uM): 43%
- % p24 secretion Week 3-rb (HIV-1 isolate: UG92046; NB-DNJ 500 uM): 15%
- % p24 secretion Week 4-rb (HIV-1 isolate: UG92046; NB-DNJ 500 uM): 0%
- % p24 secretion Week 1 (HIV-1 isolate: UG92046; NB-DNJ 1000 uM): 64%
- % p24 secretion Week 2 (HIV-1 isolate: UG92046; NB-DNJ 1000 uM): 15%
- % p24 secretion Week 3 (HIV-1 isolate: UG92046; NB-DNJ 1000 uM): 3%
- % p24 secretion Week 4 (HIV-1 isolate: UG92046; NB-DNJ 1000 uM): 0%
- % p24 secretion Week 1-rb (HIV-1 isolate: UG92046; NB-DNJ 1000 uM): 64%
- % p24 secretion Week 2-rb (HIV-1 isolate: UG92046; NB-DNJ 1000 uM): 21%
- % p24 secretion Week 3-rb (HIV-1 isolate: UG92046; NB-DNJ 1000 uM): 1%
- % p24 secretion Week 4-rb (HIV-1 isolate: UG92046; NB-DNJ 1000 uM): 0%
- decrease in secretion (HIV-1 isolate: 93IN101; [1]): 50%
- % p24 secretion Week 1 (HIV-1 isolate: 93IN101; NB-DNJ 250 uM): 106%
- % p24 secretion Week 2 (HIV-1 isolate: 93IN101; NB-DNJ 250 uM): 81%
- % p24 secretion Week 3 (HIV-1 isolate: 93IN101; NB-DNJ 250 uM): 78%
- % p24 secretion Week 4 (HIV-1 isolate: 93IN101; NB-DNJ 250 uM): 66%
- % p24 secretion Week 1-rb (HIV-1 isolate: 93IN101; NB-DNJ 250 uM): 96%
- % p24 secretion Week 2-rb (HIV-1 isolate: 93IN101; NB-DNJ 250 uM): 88%
- % p24 secretion Week 3-rb (HIV-1 isolate: 93IN101; NB-DNJ 250 uM): 81%
- % p24 secretion Week 4-rb (HIV-1 isolate: 93IN101; NB-DNJ 250 uM): 72%
- % p24 secretion Week 1 (HIV-1 isolate: 93IN101; NB-DNJ 500 uM): 75%
- % p24 secretion Week 2 (HIV-1 isolate: 93IN101; NB-DNJ 500 uM): 45%
- % p24 secretion Week 3 (HIV-1 isolate: 93IN101; NB-DNJ 500 uM): 7%
- % p24 secretion Week 4 (HIV-1 isolate: 93IN101; NB-DNJ 500 uM): 2%
- % p24 secretion Week 1-rb (HIV-1 isolate: 93IN101; NB-DNJ 500 uM): 88%
- % p24 secretion Week 2-rb (HIV-1 isolate: 93IN101; NB-DNJ 500 uM): 37%
- % p24 secretion Week 3-rb (HIV-1 isolate: 93IN101; NB-DNJ 500 uM): 11%
- % p24 secretion Week 4-rb (HIV-1 isolate: 93IN101; NB-DNJ 500 uM): 0%
- % p24 secretion Week 1 (HIV-1 isolate: 93IN101; NB-DNJ 1000 uM): 67%
- % p24 secretion Week 2 (HIV-1 isolate: 93IN101; NB-DNJ 1000 uM): 17%
- % p24 secretion Week 3 (HIV-1 isolate: 93IN101; NB-DNJ 1000 uM): 3%
- % p24 secretion Week 4 (HIV-1 isolate: 93IN101; NB-DNJ 1000 uM): 0%
- % p24 secretion Week 1-rb (HIV-1 isolate: 93IN101; NB-DNJ 1000 uM): 51%
- % p24 secretion Week 2-rb (HIV-1 isolate: 93IN101; NB-DNJ 1000 uM): 4%
- % p24 secretion Week 3-rb (HIV-1 isolate: 93IN101; NB-DNJ 1000 uM): 1%
- % p24 secretion Week 4-rb (HIV-1 isolate: 93IN101; NB-DNJ 1000 uM): 0%
